Reference: ChEMBL document CHEMBL1201862, “PubChem BioAssay data set” (2004)
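Exposure lasted 48 hours, with cells grown in 96-well plates and compounds tested at five concentrations. Here, GI50 denotes the concentration required for 50% inhibition of growth.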 Activity calls are given as the source filed them. No stated cut-off is given here; in the data, active = GI50 up to about 1.1 µM and inactive = higher.

Assays:
Experiment in all cases: NCI anticancer screen, dose series, 48 h
SR = tested on: SR
SK-MEL-5 = tested on: SK-MEL-5
OVCAR-5 = tested on: OVCAR-5
NCI-H226 = tested on: NCI-H226
NCI-H23 = tested on: NCI-H23
IGROV-1 = tested on: IGROV-1
K562 = tested on: K562
HT-29 = tested on: HT-29
SNB-19 = tested on: SNB-19
BT-549 = tested on: BT-549
A498 = tested on: A498
SF-295 = tested on: SF-295
786-0 = tested on: 786-0
SK-OV-3 = tested on: SK-OV-3
SK-MEL-2 = tested on: SK-MEL-2
HCT-116 = tested on: HCT-116
SN12C = tested on: SN12C
NCI/ADR-RES = tested on: NCI/ADR-RES
TK-10 = tested on: TK-10
KM12 = tested on: KM12

Row | Structure (SMILES) | GI50 (SR) | GI50 (SK-MEL-5) | GI50 (OVCAR-5) | GI50 (NCI-H226) | GI50 (NCI-H23) | GI50 (IGROV-1) | GI50 (K562) | GI50 (HT-29) | GI50 (SNB-19) | GI50 (BT-549) | GI50 (A498) | GI50 (SF-295) | GI50 (786-0) | GI50 (SK-OV-3) | GI50 (SK-MEL-2) | GI50 (HCT-116) | GI50 (SN12C) | GI50 (NCI/ADR-RES) | GI50 (TK-10) | GI50 (KM12)
1 | O=[N+]([O-])c1ccc2nc(O)c(/C=C(\O)c3ccccc3)nc2c1 | 17.9 µM (inactive) | 98.2 µM (inactive) | > 100 µM (inactive) | 17.6 µM (inactive) | 17.2 µM (inactive) | 20.6 µM (inactive) | > 100 µM (inactive) | > 100 µM (inactive) | 8.09 µM (inactive) | 76.7 µM (inactive) | 12.5 µM (inactive) | 18.8 µM (inactive) | 4.78 µM (inactive) | 12.3 µM (inactive) | > 100 µM (inactive) | 13.7 µM (inactive) | 12.2 µM (inactive) | 10 µM (inactive) | 4.13 µM (inactive) | 4.81 µM (inactive)
2 | CN(C)c1ccc(C(=O)NCCCCCCC(=O)NO)cc1 | 0.205 µM (active) | 0.289 µM (active) | 0.218 µM (active) | 2.75 µM (inactive) | 0.562 µM (active) | 0.553 µM (active) | 0.337 µM (active) | 0.349 µM (active) | 2 µM (inactive) | 1.7 µM (inactive) | 0.711 µM (active) | 0.326 µM (active) | 0.973 µM (active) | 0.299 µM (active) | 0.19 µM (active) | 0.169 µM (active) | 0.378 µM (active) | 0.14 µM (active) | 0.33 µM (active) | 0.684 µM (active)
3 | c1ccc(CNCCCNCCCCNCCCNCc2ccccc2)cc1 | 3.39 µM (inactive) | 7.85 µM (inactive) | 5.22 µM (inactive) | 4.68 µM (inactive) | 2.38 µM (inactive) | 1.93 µM (inactive) | 1.67 µM (inactive) | 1.92 µM (inactive) | 13.2 µM (inactive) | 16.7 µM (inactive) | > 10 µM (inactive) | 15.1 µM (inactive) | 1.5 µM (inactive) | 15.7 µM (inactive) | 14.7 µM (inactive) | 2.94 µM (inactive) | 3.72 µM (inactive) | 38.7 µM (inactive) | 5.69 µM (inactive) | 5.52 µM (inactive)
4 | C=C(C)C(=O)N1c2ccc(OC)cc2CC1C(=O)OCC (stereo not given) | > 100 µM (inactive) | > 100 µM (inactive) | > 100 µM (inactive) | > 100 µM (inactive) | > 100 µM (inactive) | > 100 µM (inactive) | > 100 µM (inactive) | > 100 µM (inactive) | > 100 µM (inactive) | > 100 µM (inactive) | > 100 µM (inactive) | > 100 µM (inactive) | > 100 µM (inactive) | > 100 µM (inactive) | > 100 µM (inactive) | > 100 µM (inactive) | > 100 µM (inactive) | > 100 µM (inactive) | > 100 µM (inactive) | > 100 µM (inactive)
5 | O=c1c2ccccc2n2nnc3ccc(NCCCNCCNCCCNc4ccc5nnn6c7ccccc7c(=O)c4c56)c1c32 | 0.0883 µM (active) | > 50 µM (inactive) | 6.44 µM (inactive) | 0.005 µM (active) | 3.83 µM (inactive) | 0.57 µM (active) | 0.215 µM (active) | 0.121 µM (active) | 6.84 µM (inactive) | 7.36 µM (inactive) | 16.3 µM (inactive) | 5.89 µM (inactive) | 0.48 µM (active) | > 20.3 µM (inactive) | > 50 µM (inactive) | 0.207 µM (active) | 0.457 µM (active) | 12.6 µM (inactive) | 0.832 µM (active) | 3.24 µM (inactive)
6 | O=C1CCSSCCC(=O)Nc2ccccc2N1 | > 100 µM (inactive) | > 100 µM (inactive) | > 100 µM (inactive) | > 100 µM (inactive) | > 100 µM (inactive) | > 100 µM (inactive) | 53.5 µM (inactive) | > 100 µM (inactive) | > 100 µM (inactive) | > 100 µM (inactive) | > 100 µM (inactive) | > 100 µM (inactive) | > 100 µM (inactive) | > 100 µM (inactive) | > 100 µM (inactive) | > 100 µM (inactive) | > 100 µM (inactive) | > 100 µM (inactive) | > 100 µM (inactive) | > 100 µM (inactive)
7 | O=C1/C(=C\c2ccco2)Oc2ccccc21 | 55.2 µM (inactive) | > 100 µM (inactive) | > 100 µM (inactive) | > 100 µM (inactive) | > 100 µM (inactive) | 99.1 µM (inactive) | > 100 µM (inactive) | > 100 µM (inactive) | > 100 µM (inactive) | > 100 µM (inactive) | > 100 µM (inactive) | > 100 µM (inactive) | > 100 µM (inactive) | > 100 µM (inactive) | > 100 µM (inactive) | > 100 µM (inactive) | > 100 µM (inactive) | > 100 µM (inactive) | > 100 µM (inactive) | > 100 µM (inactive)
8 | Cc1ccc2c(n1)C(=O)C=CC2=O | 3.24 µM (inactive) | 14.9 µM (inactive) | 18.2 µM (inactive) | 19.6 µM (inactive) | 15.7 µM (inactive) | 14.7 µM (inactive) | 3.1 µM (inactive) | 13.9 µM (inactive) | 18 µM (inactive) | 16.5 µM (inactive) | 16.8 µM (inactive) | 18.2 µM (inactive) | 5.96 µM (inactive) | 18.3 µM (inactive) | 16.7 µM (inactive) | 1.97 µM (inactive) | 13.4 µM (inactive) | 18.1 µM (inactive) | 2.52 µM (inactive) | 21.2 µM (inactive)
9 | Cc1ccc(S(=O)(=O)/N=C2/N(C)CCCS2(=O)=O)cc1 | > 100 µM (inactive) | > 100 µM (inactive) | > 100 µM (inactive) | > 100 µM (inactive) | > 100 µM (inactive) | > 100 µM (inactive) | > 100 µM (inactive) | > 100 µM (inactive) | > 100 µM (inactive) | > 100 µM (inactive) | > 100 µM (inactive) | 0.17 µM (active) | > 100 µM (inactive) | > 100 µM (inactive) | > 100 µM (inactive) | > 100 µM (inactive) | > 100 µM (inactive) | > 100 µM (inactive) | > 100 µM (inactive) | > 100 µM (inactive)
10 | OCCCCCNc1nc(O)c2[nH]cnc2n1 | > 100 µM (inactive) | > 100 µM (inactive) | > 100 µM (inactive) | > 100 µM (inactive) | > 100 µM (inactive) | > 100 µM (inactive) | > 100 µM (inactive) | > 100 µM (inactive) | > 100 µM (inactive) | > 100 µM (inactive) | > 100 µM (inactive) | > 10 µM (inactive) | > 100 µM (inactive) | > 10 µM (inactive) | > 100 µM (inactive) | > 100 µM (inactive) | > 100 µM (inactive) | > 100 µM (inactive) | > 100 µM (inactive) | > 100 µM (inactive)
